Test: Asthma Quality of Life Questionnaire with Standardized Activities (AQLQ(S))
Format: in vivo, human
Source text: The AQLQ(S) is a self-administered patient reported outcome to measure the functional impairments that are most troublesome to adolescents and adults ≥12 years of age as a result of their asthma.
Asthma Quality of Life Questionnaire with Standardized Activities (AQLQ(S)) self-administered (≥12 years)
The AQLQ(S) was designed as a self-administered patient reported outcome to measure the functional impairments that are most troublesome to adolescents and adults ≥12 years of age as a result of their asthma. The instrument is comprised of 32 items, each rated on a 7-point Likert scales from 1 to 7. The AQLQ(S) has 4 domains. The domains and the number of items in each domain are as follows: • Symptoms (12 items) • Activity limitation (11 items) • Emotional function (5 items) • Environmental stimuli (4 items)
A global score is calculated ranging from 1 to 7 and a score by domain. Higher scores indicate better quality of life. […] Patients were to complete the questionnaire in an electronic diary during on-site visits.
Secondary endpoints included pre-bronchodilator FEV1 change from baseline at EOT, ACQ-5 score change from baseline, and AQLQ score change from baseline. Other secondary and exploratory endpoints are described in Table 2.

[1] = 400 mg TID, observed/LOCF imputed, n=53, mITT

CC(C)(C=C(C#N)C(=O)N1CCC[C@@H](n2nc(-c3ccc(Oc4ccccc4)cc3F)c3c(N)ncnc32)C1)N1CCN(C2COC2)CC1 (mixture of isomers) [rilzabrutinib, (R)-2-[3-[4-amino-3-(2-fluoro-4-phenoxy-phenyl)pyrazolo[3,4-d]pyrimidin-1-yl]piperidine-1-carbonyl]-4-methyl-4-[4-(oxetan-3-yl)piperazin-1-yl]pent-2-enenitrile]
AQLQ global score change from baseline at Week 12, LS Mean Diff vs. placebo (400 mg TID, mITT, all others than low EOS and low FeNO): 0.35 | AQLQ global score change from baseline at Week 12, LS Mean Diff vs. placebo (400 mg TID, mITT, atopic medical conditions: no): 0.37 | AQLQ global score change from baseline at Week 12, LS Mean Diff vs. placebo (400 mg TID, mITT, atopic medical conditions: yes): 0.13 | AQLQ global score change from baseline at Week 12, LS Mean Diff vs. placebo (400 mg TID, mITT, background ICS dose high): 0.26 | AQLQ global score change from baseline at Week 12, LS Mean Diff vs. placebo (400 mg TID, mITT, background ICS dose medium): 0.31 | AQLQ global score change from baseline at Week 12, LS Mean Diff vs. placebo (400 mg TID, mITT, baseline ACQ-5 score >2): 0.38 | AQLQ global score change from baseline at Week 12, LS Mean Diff vs. placebo (400 mg TID, mITT, baseline ACQ-5 score ≤2): 0.29 | AQLQ global score change from baseline at Week 12, LS Mean Diff vs. placebo (400 mg TID, mITT, baseline BMI <25 kg/m^2): 0.56 | AQLQ global score change from baseline at Week 12, LS Mean Diff vs. placebo (400 mg TID, mITT, baseline BMI ≥25-<30 kg/m^2): 0.47 | AQLQ global score change from baseline at Week 12, LS Mean Diff vs. placebo (400 mg TID, mITT, baseline BMI ≥30 kg/m^2): −0.01 | AQLQ global score change from baseline at Week 12, LS Mean Diff vs. placebo (400 mg TID, mITT, baseline FEV1 reversibility <12%): 0.12 | AQLQ global score change from baseline at Week 12, LS Mean Diff vs. placebo (400 mg TID, mITT, baseline FEV1 reversibility ≥12%): 0.32 | AQLQ global score change from baseline at Week 12, LS Mean Diff vs. placebo (400 mg TID, mITT, baseline FeNO <25 ppb): 0.15 | AQLQ global score change from baseline at Week 12, LS Mean Diff vs. placebo (400 mg TID, mITT, baseline FeNO <35 ppb): 0.18 | AQLQ global score change from baseline at Week 12, LS Mean Diff vs. placebo (400 mg TID, mITT, baseline FeNO ≥25 ppb): 0.44 | AQLQ global score change from baseline at Week 12, LS Mean Diff vs. placebo (400 mg TID, mITT, baseline FeNO ≥35 ppb): 0.45 | AQLQ global score change from baseline at Week 12, LS Mean Diff vs. placebo (400 mg TID, mITT, baseline IgA <median 2190 mg/L): 0.50 | AQLQ global score change from baseline at Week 12, LS Mean Diff vs. placebo (400 mg TID, mITT, baseline IgA ≥median 2190 mg/L): 0.08 | AQLQ global score change from baseline at Week 12, LS Mean Diff vs. placebo (400 mg TID, mITT, baseline IgE <100 IU/mL): 0.46 | AQLQ global score change from baseline at Week 12, LS Mean Diff vs. placebo (400 mg TID, mITT, baseline IgE <median 121.85 IU/mL): 0.60 | AQLQ global score change from baseline at Week 12, LS Mean Diff vs. placebo (400 mg TID, mITT, baseline IgE ≥100 IU/mL): 0.16 | AQLQ global score change from baseline at Week 12, LS Mean Diff vs. placebo (400 mg TID, mITT, baseline IgE ≥median 121.85 IU/mL): −0.02 | AQLQ global score change from baseline at Week 12, LS Mean Diff vs. placebo (400 mg TID, mITT, baseline blood eosinophil level 1 <0.15 10^9/L): 0.07 | AQLQ global score change from baseline at Week 12, LS Mean Diff vs. placebo (400 mg TID, mITT, baseline blood eosinophil level 1 ≥0.15-<0.3 10^9/L): 0.32 | AQLQ global score change from baseline at Week 12, LS Mean Diff vs. placebo (400 mg TID, mITT, baseline blood eosinophil level 1 ≥0.3 10^9/L): 0.70 | AQLQ global score change from baseline at Week 12, LS Mean Diff vs. placebo (400 mg TID, mITT, baseline blood eosinophil level 2 <0.3 10^9/L): 0.17 | AQLQ global score change from baseline at Week 12, LS Mean Diff vs. placebo (400 mg TID, mITT, baseline blood eosinophil level 2 ≥0.3 10^9/L): 0.70 | AQLQ global score change from baseline at Week 12, LS Mean Diff vs. placebo (400 mg TID, mITT, baseline percent predicted FEV1 <77%): 0.42 | AQLQ global score change from baseline at Week 12, LS Mean Diff vs. placebo (400 mg TID, mITT, baseline percent predicted FEV1 <80%): 0.35 | AQLQ global score change from baseline at Week 12, LS Mean Diff vs. placebo (400 mg TID, mITT, baseline percent predicted FEV1 ≥77%): 0.16 | AQLQ global score change from baseline at Week 12, LS Mean Diff vs. placebo (400 mg TID, mITT, baseline percent predicted FEV1 ≥80%): 0.27 | AQLQ global score change from baseline at Week 12, LS Mean Diff vs. placebo (400 mg TID, mITT, baseline pre-bronchodilator FEV1 <2.1955 L): 0.28 | AQLQ global score change from baseline at Week 12, LS Mean Diff vs. placebo (400 mg TID, mITT, baseline pre-bronchodilator FEV1 ≥2.1955 L): 0.27 | AQLQ global score change from baseline at Week 12, LS Mean Diff vs. placebo (400 mg TID, mITT, baseline weight <60 kg): −0.08 | AQLQ global score change from baseline at Week 12, LS Mean Diff vs. placebo (400 mg TID, mITT, baseline weight ≥60-<90 kg): 0.41 | AQLQ global score change from baseline at Week 12, LS Mean Diff vs. placebo (400 mg TID, mITT, baseline weight ≥90 kg): 0.17 | AQLQ global score change from baseline at Week 12, LS Mean Diff vs. placebo (400 mg TID, mITT, female): 0.32 | AQLQ global score change from baseline at Week 12, LS Mean Diff vs. placebo (400 mg TID, mITT, former smokers): −0.02 | AQLQ global score change from baseline at Week 12, LS Mean Diff vs. placebo (400 mg TID, mITT, low EOS (<0.15) and low FeNO (<25)): 0.10 | AQLQ global score change from baseline at Week 12, LS Mean Diff vs. placebo (400 mg TID, mITT, male): 0.15 | AQLQ global score change from baseline at Week 12, LS Mean Diff vs. placebo (400 mg TID, mITT, never smokers): 0.34 | AQLQ global score non-responders at Week 12, number [1]: 24 | AQLQ global score non-responders at Week 12, percentage [1]: (45.3) (22/2) | participants with AQLQ improvement of at least 0.5 from baseline at Week 12 (400 mg TID, placebo 40.3%, p=0.0456): 54.7% | AQLQ(S) Activity limitation score, Mean (Week 4, 400 mg BID, mITT): 5.48 | AQLQ(S) Activity limitation score, Median (Week 4, 400 mg BID, mITT): 5.55 | AQLQ(S) Activity limitation score, change from baseline, LS Mean (Week 4, 400 mg BID, mITT): 0.72 | AQLQ(S) Activity limitation score, change from baseline, Mean (Week 4, 400 mg BID, mITT): 0.73 | AQLQ(S) Activity limitation score, change from baseline, Median (Week 4, 400 mg BID, mITT): 0.55 | AQLQ(S) Emotional function score, Mean (Week 4, 400 mg BID, mITT): 5.85 | AQLQ(S) Emotional function score, Median (Week 4, 400 mg BID, mITT): 6.40 | AQLQ(S) Emotional function score, change from baseline, LS Mean (Week 4, 400 mg BID, mITT): 0.77 | AQLQ(S) Emotional function score, change from baseline, Mean (Week 4, 400 mg BID, mITT): 0.61 | AQLQ(S) Emotional function score, change from baseline, Median (Week 4, 400 mg BID, mITT): 0.40 | AQLQ(S) Environmental stimuli score, Mean (Week 4, 400 mg BID, mITT): 5.13 | AQLQ(S) Environmental stimuli score, change from baseline, LS Mean (Week 4, 400 mg BID, mITT): 0.60 | AQLQ(S) Environmental stimuli score, change from baseline, Mean (Week 4, 400 mg BID, mITT): 0.67 | AQLQ(S) Environmental stimuli score, change from baseline, Median (Week 4, 400 mg BID, mITT): 0.50 | AQLQ(S) Global score, Mean (Week 4, 400 mg BID, mITT): 5.63 | AQLQ(S) Global score, Median (Week 4, 400 mg BID, mITT): 5.69 | AQLQ(S) Global score, change from baseline, LS Mean (Week 4, 400 mg BID, mITT): 0.80 | AQLQ(S) Global score, change from baseline, Mean (Week 4, 400 mg BID, mITT): 0.73 | AQLQ(S) Global score, change from baseline, Median (Week 4, 400 mg BID, mITT): 0.69 | AQLQ(S) Symptoms score, Mean (Week 4, 400 mg BID, mITT): 5.83 | AQLQ(S) Symptoms score, Median (Week 4, 400 mg BID, mITT): 6.00 | AQLQ(S) Symptoms score, change from baseline, LS Mean (Week 4, 400 mg BID, mITT): 0.92 | AQLQ(S) Symptoms score, change from baseline, Mean (Week 4, 400 mg BID, mITT): 0.80 | AQLQ(S) Symptoms score, change from baseline, Median (Week 4, 400 mg BID, mITT): 0.75 | AQLQ(S) Environmental stimuli score, change from baseline, LS Mean Diff vs. placebo (Week 4, 400 mg BID, mITT, 95% CI 0.02, 1.49): 0.76 | AQLQ(S) Activity limitation score, change from baseline, LS Mean Diff vs. placebo (Week 4, 400 mg BID, mITT, 95% CI 0.26, 1.24): 0.75 | AQLQ(S) Emotional function score, change from baseline, LS Mean Diff vs. placebo (Week 4, 400 mg BID, mITT, 95% CI 0.30, 1.74): 1.02 | AQLQ(S) Global score, change from baseline, LS Mean Diff vs. placebo (Week 4, 400 mg BID, mITT, 95% CI 0.34, 1.34): 0.84 | AQLQ(S) Symptoms score, change from baseline, LS Mean Diff vs. placebo (Week 4, 400 mg BID, mITT, 95% CI 0.41, 1.32): 0.86
